Laboratory results reported in ChEMBL document CHEMBL1135216, “New 2-(1-adamantylcarbonyl)pyridine and 1-acetyladamantane thiosemicarbazones-thiocarbonohydrazones: cell growth inhibitory, antiviral and antimicrobial activity evaluation” (Bioorg Med Chem Lett, 2002).
≈ marks a conversion by molar mass, not a printed value.

Key:
CCRF-CEM [1] = assay: Tested for the inhibitory concentration against cell growth of human leukemic cell line CCRF-CEM; type: functional
CCRF-CEM [2] = assay: Tested for the concentration required to reduce the viability of leukemia cells by 50% against cell growth of T cell leukemia cell line CCRF-CEM using MTT assay; type: functional; conditions: Homo sapiens, read-out: LC50 (the source's name)
CCRF-CEM [3] = assay: Tested for the inhibitory concentration against cell growth of Tcell leukemic cell line CCRF-CEM using MTT assay; type: functional; conditions: Homo sapiens
E6SM [4] = assay: Tested for antiviral activity against VSV-virus in human embryonic skin muscle fibroblasts; type: functional; conditions: Muscle tissue
E6SM [5] = assay: Tested for antiviral activity against herpes simplex virus type 1(KOS) in E6SM cell line(human embryonic skin-muscle fibroblasts); type: functional
E6SM [6] = assay: Tested for antiviral activity against vaccinia virus in human embryonic skin muscle fibroblast; type: functional; conditions: Muscle tissue
HeLa [7] = assay: The compound was tested for antiviral activity against VSV-virus in human epithelial cells; type: functional
E6SM [8] = assay: Tested for cytotoxic activity in human embryonic skin muscle fibroblast (E6SM); type: functional; conditions: Muscle tissue
E6SM [9] = assay: Antiviral activity against thymidine kinase-deficient (TK-HSV-1)virus in E6SM cell line(human embryonic skin-muscle fibroblasts); type: functional
E6SM [10] = assay: Antiviral activity against thymidine kinase-deficient (TK-HSV-2G) virus in E6SM cell line(human embryonic skin-muscle fibroblasts); type: functional
Escherichia coli = assay: Tested for the antimicrobial activity against Escherichia coli ATCC 25922; type: functional
HEL [11] = assay: Tested for cytotoxic activity in human embryonic lung fibroblast (HEL); type: functional
HEL [12] = assay: Tested for antiviral activity against human cytomegalovirus (AD-169) in human embryonic lung fibroblasts; type: functional
HEL [13] = assay: Tested for antiviral activity against thymidine kinase deficient Varicella zoster virus in human embryonic lung fibroblasts; type: functional
HEL [14] = assay: Tested for antiviral activity against thymidine kinase wild type Varicella zoster virus in human embryonic lung fibroblast; type: functional
HeLa [15] = assay: Tested for antiviral activity against coxsackie-B4 virus in human epithelial cell line; type: functional
HL-60 [16] = assay: Tested for the inhibitory concentration against cell growth of human leukemic cell line HL60; type: functional
HL-60 [17] = assay: Tested for the concentration required to reduce the viability of leukemia cells by 50% against cell growth of HL60 acute myeloid leukemia using MTT assay; type: functional; conditions: Homo sapiens, read-out: LC50 (the source's name)
HL-60 [18] = assay: Tested for the inhibitory concentration against cell growth of HL60 acute myeloid leukemia using MTT assay; type: functional; conditions: Homo sapiens
HeLa [19] = assay: Tested for cytotoxic activity in human epithelial cell line (HeLa); type: functional
HuT78 [20] = assay: Tested for the inhibitory concentration against cell growth of human leukemic cell line HuT78; type: functional
HuT78 [21] = assay: Tested for the concentration required to reduce the viability of leukemia cells by 50% against cell growth of HuT78 T lymphoma using MTT assay; type: functional; conditions: Homo sapiens, read-out: LC50 (the source's name)
HuT78 [22] = assay: Tested for the inhibitory concentration against cell growth of HuT78 T lymphoma using MTT assay; type: functional; conditions: Homo sapiens
K562 [23] = assay: Tested for the concentration required to reduce the viability of leukemia cells by 50% against cell growth of K562 chronic myeloid leukemia using MTT assay; type: functional; conditions: Homo sapiens, read-out: LC50 (the source's name)
K562 [24] = assay: Tested for the inhibitory concentration against cell growth of K562 chronic myeloid leukemia using MTT assay; type: functional; conditions: Homo sapiens
K562 [25] = assay: Tested for the inhibitory concentration against cell growth of human leukemic cell line K562; type: functional
Klebsiella pneumoniae = assay: Tested for the antimicrobial activity against Klebsiella pneumoniae ATCC 13883; type: functional
MOLT-4 [26] = assay: Tested for the inhibitory concentration against cell growth of human leukemic cell line MOLT-4; type: functional
MT4 [27] = assay: Tested for effective concentration required to protect MT-4 cells against the cytopathicity of HIV-1(IIIB); type: functional; conditions: Homo sapiens, read-out: LC50 (the source's name)
MT4 [28] = assay: (§1) Tested for effective concentration required to protect MT-4 cells against the cytopathicity of HIV-2(ROD); type: functional, cell-based; conditions: Homo sapiens
MOLT-4 [29] = assay: Tested for the concentration required to reduce the viability of leukemia cells by 50% against cell growth of T cell leukemia cell line MOLT-4 using MTT assay; type: functional; conditions: Homo sapiens, read-out: LC50 (the source's name)
MOLT-4 [30] = assay: Tested for the inhibitory concentration against cell growth of Tcell leukemic cell line MOLT-4 using MTT assay; type: functional; conditions: Homo sapiens
RPMI-8226 [31] = assay: Tested for the inhibitory concentration against cell growth of human leukemic cell line RPMI8226; type: functional
RPMI-8226 [32] = assay: Tested for the concentration required to reduce the viability of leukemia cells by 50% against cell growth of RPMI8226 multiple myeloma using MTT assay; type: functional; conditions: Homo sapiens, read-out: LC50 (the source's name)
RPMI-8226 [33] = assay: Tested for the inhibitory concentration against cell growth of […] multiple myeloma using MTT assay; type: functional; conditions: Homo sapiens
Staphylococcus aureus = assay: Tested for the antimicrobial activity against Staphylococcus aureus ATCC 6538; type: functional
[34] = test system: Staphylococcus epidermidis; assay: Tested for the antimicrobial activity against Staphylococcus epidermidis ATCC 12228; type: functional
Staphylococcus hominis = assay: Tested for the antimicrobial activity against Staphylococcus hominis ATCC 27844; type: functional
Vero [35] = assay: Tested for cytotoxic activity in African green monkey kidney cells (Vero); type: functional; conditions: Chlorocebus sabaeus
Vero [36] = assay: Tested for antiviral activity against Punta toro virus in African green monkey kidney cell (Vero); type: functional; conditions: Chlorocebus sabaeus
Vero [37] = assay: Tested for antiviral activity against Reo-1 virus in African green monkey kidney cell (Vero); type: functional; conditions: Chlorocebus sabaeus
Vero [38] = assay: Tested for antiviral activity against Sindbis virus in African green monkey kidney cell (Vero); type: functional; conditions: Chlorocebus sabaeus
Vero [39] = assay: Tested for antiviral activity against coxsackie B-4 virus in African green monkey kidney cell (Vero); type: functional; conditions: Chlorocebus sabaeus
Vero [40] = assay: Tested for antiviral activity against parainfluenza virus in african green monkey kidney cell (Vero); type: functional; conditions: Chlorocebus sabaeus
MT4 [41] = assay: Tested for cytotoxic concentration required to reduce the viability of MT-4 cells by 50%; type: functional, cell-based; conditions: Homo sapiens, read-out: EC50 (the source's name)
E6SM [42] = assay: Tested for antiviral activity against thymidine kinase-deficient (TK-HSV-2G) virus in E6SM cell line(human embryonic skin-muscle fibroblasts); type: functional
E6SM [43] = assay: The compound was tested for antiviral activity against thymidine kinase-deficient (TK-HSV-1)virus in E6SM cell line(human embryonic skin-muscle fibroblasts); type: functional
MT4 [44] = assay: as §1; type: functional; conditions: Homo sapiens, read-out: LC50 (the source's name)

N/N=C(\S)N/N=C(/c1ccccn1)C12CC3CC(CC(C3)C1)C2
GI50 (CCRF-CEM [1]): 100 µM
CC50 (CCRF-CEM [2]): 100 µM
TGI (CCRF-CEM [3]): 100 µM
MIC (E6SM [4]): > 16 µg/mL
MIC (E6SM [5]): > 16 µg/mL
MIC (E6SM [6]): > 16 µg/mL
MIC (HeLa [7]): > 80 µg/mL
MCC (E6SM [8]): > 80 µg/mL
MIC (E6SM [9]): > 16 µg/mL
MIC (E6SM [10]): > 16 µg/mL
MIC (Escherichia coli): > 3040 µg/mL
MCC (HEL [11]): > 20 µg/mL
MIC (HEL [12]): > 5 µg/mL
MIC (HEL [13]): > 20 µg/mL
MIC (HEL [14]): > 20 µg/mL
MIC (HeLa [15]): > 80 µg/mL
TGI (HL-60 [16]): 100 µM
CC50 (HL-60 [17]): 100 µM
TGI (HL-60 [18]): 100 µM
MCC (HeLa [19]): 400 µg/mL
GI50 (HuT78 [20]): 100 µM
CC50 (HuT78 [21]): 100 µM
TGI (HuT78 [22]): 100 µM
CC50 (K562 [23]): 100 µM
TGI (K562 [24]): 100 µM
GI50 (K562 [25]): 41.7 µM
MIC (Klebsiella pneumoniae): > 3040 µg/mL
GI50 (MOLT-4 [26]): 100 µM
EC50 (MT4 [27]): > 27 µM
EC50 (MT4 [28]): > 27 µM
CC50 (MOLT-4 [29]): 100 µM
TGI (MOLT-4 [30]): 100 µM
GI50 (RPMI-8226 [31]): 100 µM
CC50 (RPMI-8226 [32]): 100 µM
TGI (RPMI-8226 [33]): 100 µM
MIC (Staphylococcus aureus): > 3040 µg/mL
MIC [34]: > 3040 µg/mL
MIC (Staphylococcus hominis): > 3040 µg/mL
MCC (Vero [35]): 80 µg/mL
MIC (Vero [36]): > 80 µg/mL
MIC (Vero [37]): > 80 µg/mL
MIC (Vero [38]): > 80 µg/mL
MIC (Vero [39]): > 80 µg/mL
MIC (Vero [40]): > 80 µg/mL
CC50 (MT4 [41]): 27.3 µM

C/C(=N/N=C(/S)N/N=C(\S)c1ccc(Cl)cc1)C12CC3CC(CC(C3)C1)C2
GI50 (CCRF-CEM [1]): 100 µM
CC50 (CCRF-CEM [2]): 100 µM
TGI (CCRF-CEM [3]): 100 µM
MIC (E6SM [4]): > 40 µg/mL
MIC (E6SM [5]): > 40 µg/mL
MIC (E6SM [42]): > 40 µg/mL
MIC (E6SM [6]): > 5 µg/mL
MIC (HeLa [7]): > 40 µg/mL
MIC (E6SM [43]): > 40 µg/mL
MCC (E6SM [8]): 200 µg/mL
MIC (Escherichia coli): > 2300 µg/mL
MCC (HEL [11]): > 5 µg/mL
MIC (HEL [12]): > 2 µg/mL
MIC (HEL [13]): > 2 µg/mL
MIC (HEL [14]): > 2 µg/mL
MIC (HeLa [15]): > 40 µg/mL
GI50 (HL-60 [16]): 100 µM
CC50 (HL-60 [17]): 100 µM
TGI (HL-60 [18]): 100 µM
MCC (HeLa [19]): > 200 µg/mL
GI50 (HuT78 [20]): 100 µM
CC50 (HuT78 [21]): 100 µM
TGI (HuT78 [22]): 100 µM
CC50 (K562 [23]): 100 µM
TGI (K562 [24]): 100 µM
GI50 (K562 [25]): 100 µM
MIC (Klebsiella pneumoniae): > 2300 µg/mL
GI50 (MOLT-4 [26]): 100 µM
EC50 (MT4 [27]): > 10 µM
CC50 (MT4 [44]): > 10 µM
CC50 (MOLT-4 [29]): 100 µM
TGI (MOLT-4 [30]): 100 µM
GI50 (RPMI-8226 [31]): 100 µM
CC50 (RPMI-8226 [32]): 100 µM
TGI (RPMI-8226 [33]): 100 µM
MIC (Staphylococcus aureus): 1150 µg/mL (≈ 2730 µM)
MIC [34]: 1150 µg/mL (≈ 2730 µM)
MIC (Staphylococcus hominis): 1150 µg/mL (≈ 2730 µM)
MCC (Vero [35]): > 400 µg/mL
MIC (Vero [36]): > 40 µg/mL
MIC (Vero [37]): > 40 µg/mL
MIC (Vero [38]): > 40 µg/mL
MIC (Vero [39]): > 40 µg/mL
MIC (Vero [40]): > 40 µg/mL
CC50 (MT4 [41]): 10.1 µM
